Test results published in patent US5498522A, “Methods for the use of spermidine/spermine N^1 -acetyltransferase as a prognostic indicator and/or a tumor response marker” (priority 1993, dated 1996).
Several values for one entry are separate records, joined by “and”; a condition that tells them apart may be missing. Identical values can stand only once. Entries after “also recorded” stand apart in the source; their conditions may differ.

How the values were obtained:
[1] = tested on: PANUT-3 human melanoma xenografts; experiment: antitumor response against PANUT-3 human melanoma xenografts in mice; type: in vivo
Method: (§1) […] where 1 represents length; w--width; and h--height. Tumor sizes were monitored 2 times/week until the median volume (V=0.4(a^2 ×b) where a is the smaller of the two perpendicular tumor diameters). As an indication of drug toxicity, animal weights were also recorded at the time of tumor volume measurement. Statistical analyses were performed on mouse tumor size and weight parameters by using the Mann-Whitney test.
(§2) Tumor growth suppression was measured by plotting the mean tumor volume versus the number of days post-inoculation with polyamine analog (growth curve analyses). Suppression is determined by comparison with the growth of untreated tumors (%T/C). More specifically,: %T/C is (treated tumor volume minus pretreatment volume) divided by (control tumor volume minus pretreatment volume)×100. Typically this is measured either when the control tumor volume reaches 1000 mm^3, or at the last day of treatment.
(§3) Tumor regression is measured as a percentage representing the average percentage of decrease in tumor volume from the largest pretreatment volume value.
(§4) Repression of regrowth is represented as regrowth delay, determined as the number of days following cessation of treatment when median group tumor volume exceeds 200 mm^3 (an arbitrary indication of regrowth which was determined statistically).
(§5) For example, human melanoma cell lines including MALME-3, SH-1, PANUT-3 and LOX were evaluated for the level of SSAT induction and potency of antitumor response following BENSPM treatment (80 mg/kg 3×/day×6 days) using the methodology previously described in this embodiment. […] The baseline of SSAT activity in the control mice (2 examined of 7 mice) ranged from 50 to 90 pmol/min/mg. […] Note that following BENSPM treatment (as discussed above in the context of Tables 4 and 5), suppression of tumor growth of PANUT-3, unlike suppression of MALME-3 growth, lasted for only about 12 days. Further, the levels of SSAT in PANUT-3 at two weeks post-treatment, approached the levels in the control and correlated with the loss of antitumor activity.

[2] = tested on: HT29 colon adenocarcinoma xenografts; experiment: antitumor response against HT29 colon adenocarcinoma xenografts in mice; type: in vivo, human
Method: as §1, §2, §3, §4
(§6) Cells from malignant solid human tumor tissue types, other than melanoma, have also been evaluated for their responsiveness to polyamine analog treatment including clonal cell lines A121 (human ovarian adenocarcinoma),A549 (lung adenocarcinoma), and HT29 colon adenocarcinoma). These cell lines were evaluated for the level of SSAT induction and potency of antitumor response following BENSPM treatment (80 mg/kg 3×/day×6 days) in-vivo using the methodology previously described in this embodiment. Also, dose of BENSPM was compared (80 mg/kg versus 40 mg/kg). The baseline of SSAT activity in the control mice (2 of 7 mice) ranged from 40 to 90 pmol/min/mg. Tumor cells from the human xenografts A121, A549, and HT29 were removed from two mice of each treated group of seven mice containing the respective xenograft at 16 hours following the final BENSPM injection to evaluate the level of induction of SSAT activity. […] The response to the polyamine analog was heterotypic. […] As discussed previously, it is not known whether the heterotypic antitumor response may be due to either the individual properties of the clonal line or the particular solid tumor type.

[3] = tested on: LOX human melanoma xenografts; experiment: antitumor response against LOX human melanoma xenografts in mice; type: in vivo
Method: as §1, §2, §3, §4
For example, SSAT activity and potency of antitumor response was examined for LOX and MALME-3 melanoma xenografts in mice. Mice developing palpable tumors of a similar size were divided into different treatment groups comprising 7 mice per treatment group, and 7 control mice per treatment group. The treated mice received 40 mg/kg of BENSPM administered every 8 hours for a 5 day period. Melanoma tumor cells comprising the human xenografts were removed from two mice of each group at 16 hours following the final BENSPM injection to evaluate the level of induction of SSAT activity. The antitumor response from polyamine analog therapy was assessed in the five remaining mice from each group by monitoring the tumor volume of the xenografts over days following treatment as compared to untreated xenografts.
as §5

[4] = tested on: polyamine pools of melanoma tumor; experiment: polyamine pools in human melanoma xenografts in-vivo; conditions: for polyamine pools: 16 hours after final injection
[5] = BENSPM (analog) pools in tumor and host tissue; type: in vivo, mouse; parameters: BENSPM pool (tissue content): unit not given here
[6] = tested on: A121 human ovarian adenocarcinoma xenografts; experiment: antitumor response against A121 human ovarian adenocarcinoma xenografts in mice; type: in vivo
Method: as §1, §2, §3, §4, §6

LOX melanoma cells = experiment: N^1 -acetylspermidine in LOX cell cultures; type: cell-based, human; conditions: 10 μm BESPM, 48 hours
Method: To illustrate this embodiment, LOX and MALME-3 cell cultures were treated for 48 hours with 10 μm BESPM. The cells from each culture were harvested and assayed for SSAT activity. Media samples were prepared by treating the samples with 50% trichloroacetic acid to give a final concentration of 10% and then centrifuged at 15,000×g for 10 minutes. The supernatant was then filtered through a 0.22-μm filter, extracted with several volumes of ether, lyophilized, and resuspended in 10% trichloroacetic acid. N^1 -acetylspermidine levels of cells and media samples were then measured by use of high-pressure liquid chromatography. […] Similarly, N^1 -acetylspermidine levels from MALME-3 control cells, media from control cell cultures, and treated MALME-3 cells contained minimal levels of N^1 -acetylspermidine.

natural polyamine pools = conditions: in-vitro; cited from earlier work
[7] = tested on: NCI H157 human large cell lung carcinoma cell line; conditions: cited from earlier work
[8] = HT29, BENSPM 80 mg/kg 3x/d × 6d
[9] = MALME-3 tumor, 40 mg/kg 3x/day 6 days, 16 hrs post-treatment
[10] = MALME-3 tumor, 40 mg/kg, 2 wks post-treatment
[11] = A121, BENSPM 80 mg/kg 3x/d × 6d

## CCNCCCNCCCNCCCNCC [BENSPM, N^1,N^11 -bis(ethyl)norspermine]
[1]; BENSPM 80 mg/kg 3×/day×6 days
  tumor regression, PANUT-3 versus MALME-3: significantly more tumor regression
[1]; PANUT-3, BENSPM at 80 mg/kg
  % T/C at 1 g: 10%
  Tumor Regression: Major
[1]; PANUT-3, BENSPM at 80 mg/kg, dt 7 days
  Regrowth Delay: 2.7 × dt
[1]; PANUT-3, BENSPM at 80 mg/kg, for duration of experiment
  No Regrowth: 0/5
[1]; PANUT-3 xenograft, following BENSPM treatment
  duration of suppression of tumor growth: about 12 days
[2]; [8]
  % T/C at 1 g: 24%
  Tumor Regression: no measurable tumor regression and None
[2]; HT29, BENSPM 80 mg/kg 3x/d × 6d, dt 3.5 days
  Regrowth Delay: None
[2]; HT29, BENSPM 80 mg/kg 3x/d × 6d, for duration of experiment
  No Regrowth: two of five mice examined showed no regrowth and 2/5
[2]; HT29 xenograft, 80 mg/kg 3×/day×6 days
  growth rate: reduced growth rate
[3]; LOX xenograft, 40 mg/kg every 8 hours for 5 days
  tumor regression, regrowth delay, lack of regrowth (FIG. 6): no significant tumor regression, regrowth delay, nor lack of regrowth
[3]; LOX, BENSPM at 80 mg/kg
  % T/C at 1 g: 40%
  Tumor Regression: None
[3]; LOX, BENSPM at 80 mg/kg, dt 5 days
  Regrowth Delay: None
[3]; LOX, BENSPM at 80 mg/kg, for duration of experiment
  No Regrowth: 0/5
[4]; [9]
  PUT pool: 20/20
  SPD pool: 50/20
  SPM pool: 40/30
[4]; [10]
  N-acetylspermidine level: 240/180
  PUT pool: 370/290
  SPD pool: 560/160
  SPM pool: 200/80
[4]; MALME-3 tumor
  polyamine pools: almost totally depleted
[4]; PANUT-3 tumor
  polyamine pools: almost totally depleted
[5]; [9]
  BENSPM pool (tissue content): 1020/1535
[5]; [10]
  BENSPM pool (tissue content): 620/470
[5]; kidney, 40 mg/kg, 2 wks post-treatment
  BENSPM pool (tissue content): 90/150
[5]; kidney, 40 mg/kg, 16 hrs post-treatment
  BENSPM pool (tissue content): 860/1705
[5]; liver, 40 mg/kg, 2 wks post-treatment
  BENSPM pool (tissue content): 40/40
[5]; liver, 40 mg/kg, 16 hrs post-treatment
  BENSPM pool (tissue content): 1180/1470
[5]; tumor, kidney and liver, 40 mg/kg, 16 hrs post-treatment
  metabolite peak of BENSPM: a peak which was similar in height to the SPM peak
[6]; [11]
  % T/C at 1 g: < 0%
  Tumor Regression: showed tumor regression; also recorded: Present
[6]; A121, BENSPM 80 mg/kg 3x/d × 6d, dt 5 days
  Regrowth Delay: 3.2 × dt
[6]; A121, BENSPM 80 mg/kg 3x/d × 6d, for duration of experiment
  No Regrowth: 2 of 5 and 2/5
[6]; A121 xenograft, 80 mg/kg 3×/day×6 days
  total growth suppression period: 16 days

## CCNCCCNCCCCNCCCNCC [BESPM, N^1,N^12-bis(ethyl)spermine]
LOX melanoma cells
  N^1 -acetylspermidine Extracellular: < 0.1 nmol/culture
  N^1 -acetylspermidine Intracellular: < 0.1 nmol/culture
Natural polyamine pools
  natural polyamine pools: deplete natural polyamine pools
[7]
  cytotoxic response and SSAT induction: associated with a high induction of SSAT
